Measurements: ChEMBL document CHEMBL3045778, “Production of bacillomycin- and macrolactin-type antibiotics by Bacillus amyloliquefaciens NJN-6 for suppressing soilborne plant pathogens” (2012)

What was measured:
Ralstonia solanacearum = assay: Antibacterial activity against Ralstonia solanacearum race 1 assessed as growth inhibition at 50 uL at 28 degC for 3 days; type: functional
[1] = tested on: Fusarium oxysporum f. sp. cubense; assay: Antifungal activity against soil-borne Fusarium oxysporum f. sp. cubense race 4 assessed as growth inhibition at 50 uL at 28 degC for 4 days; type: functional

Question: `C[C@@H]1CCC/C=C/C=C/[C@H](O)C[C@@H](O)C/C=C\C=C\[C@@H](OC(=O)CC(=O)O)C/C=C/C=C\C(=O)O1` [7-O-MALONYL MACROLACTIN A] was tested. Which “diameter of the inhibition zone (DIZ)” value (Ralstonia solanacearum) did it give?
Answer: 1 cm

Question: `C[C@@H]1CCC/C=C/C=C/[C@H](O)C[C@@H](O)C/C=C\C=C\[C@@H](OC(=O)CCC(=O)O)C/C=C/C=C\C(=O)O1` [7-O-SUCCINYL MACROLACTIN A] was tested. Which “diameter of the inhibition zone (DIZ)” value (Ralstonia solanacearum) did it give?
Answer: 1.3 cm

Question: With `CC(C)CCCCCCCCC1CC(=O)N[C@@H](CC(=O)O)C(=O)N[C@H](Cc2ccc(O)cc2)C(=O)N[C@H](CC(N)=O)C(=O)N2CCC[C@H]2C(=O)N[C@@H](CCC(=O)O)C(=O)N[C@H](CO)C(=O)N[C@@H]([C@@H](C)O)C(=O)N1` (stereo not given in full) [BACILLOMYCIN D(C14)] as the compound, how does the “diameter of the inhibition zone (DIZ)” value [1] read?
Answer: 0.6 cm

Question: How did the “diameter of the inhibition zone (DIZ)” value [1] turn out when `CCC(C)CCCCCCCCC1CC(=O)N[C@@H](CC(=O)O)C(=O)N[C@H](Cc2ccc(O)cc2)C(=O)N[C@H](CC(N)=O)C(=O)N2CCC[C@H]2C(=O)N[C@@H](CCC(=O)O)C(=O)N[C@H](CO)C(=O)N[C@@H]([C@@H](C)O)C(=O)N1` (stereo not given in full) [BACILLOMYCIN D(C15)] was run?
Answer: 0.7 cm

Question: How did the “diameter of the inhibition zone (DIZ)” value (Ralstonia solanacearum) turn out when `C[C@@H]1CCC/C=C/C=C/[C@H](O)C[C@@H](O)C/C=C\C=C\[C@@H](O)C/C=C/C=C\C(=O)O1` [MACROLACTIN A] was run?
Answer: 1.2 cm
